Results as given in patent publication US4472286A, “Perfluoroalkyl anion/perfluoroalkyl cation ion pair complexes” (Ciba-Geigy Corporation, priority 1983, dated 1984).
One block for each molecule: values may come before it.

What was measured:
[1] = Solubility in water of Rf.Rf complexes and precursor surfactants; type: physicochemical
Method: The following Table 1 illustrates how a selected type of an Rf Rf ion-pair complex differs in its properties from the precursor anionic and cationic fluorochemical surfactants. Besides the differences shown in Table 1 (solubility, melting point, surface tension), Rf Rf ion-pair complexes also differ in many other properties from their precursor surfactants.
(§1) The products of Examples 1, 2 and 4 were tested for their respective solubility in distilled water.

[2] = Micellar behavior in distilled water; type: physicochemical
Method: as §1

[3] = Surface tension of aqueous solutions (ASTM D-1331-56); type: physicochemical; settings: for Surface tension, anionic surfactant: Table 5, 0.01%
[4] = background section; cited from earlier work

solubility in distilled water [1]: 5×10^-3 weight % | micellar behavior [2]: None | surface tension of concentrated solution ([3]; concentrated solution in distilled water): 16.9 dynes/cm
Molecule: 3-(1,1,2,2-tetrahydroperfluorooctylthio)-2-hydroxypropyltrimethylammonium 2-methyl-2-(3-[1,1,2,2-tetrahydroperfluorooctylthio]propanesulfonate [Example 1]

Molecule: O=S(=O)(O)C(F)(F)C(F)(F)C(F)(F)C(F)(F)C(F)(F)C(F)(F)C(F)(F)C(F)(F)F [FC-95]
Surface tension, anionic surfactant alone ([3]; Table 4, at 0.01% in water): 42.2 | Surface tension, anionic surfactant [3]: 42.2

Molecule: CCN(CC(=O)O)S(=O)(=O)C(F)(F)C(F)(F)C(F)(F)C(F)(F)C(F)(F)C(F)(F)C(F)(F)C(F)(F)F [FC-128]
Surface tension, anionic surfactant alone ([3]; Table 4, at 0.01% in water): 24.7 | Surface tension, anionic surfactant [3]: 24.7

Molecule: C[N+](C)(C)CCCNS(=O)(=O)C(F)(F)C(F)(F)C(F)(F)C(F)(F)C(F)(F)C(F)(F)C(F)(F)C(F)(F)F [FC-134]
Surface tension, cationic surfactant alone ([3]; Table 4, at 0.01% in water): 17.8

Molecule: decyltrimethylammonium decyl sulfate
surface tension of aqueous solutions (literature / general knowledge) [4]: ≥ 22 dynes/cm
